Source: USRE47193E1, “Selectively substituted quinoline compounds” (EISAI R&D MANAGEMENT CO., LTD., priority 2013, dated 2019)

Columns and labels:
Human TLR4 = biological target: T1, Human TLR4 (Homo sapiens, UniProt O00206); test: HEK-293 human TLR4 NF-kappaB luciferase reporter assay (LPS); format: cell-based; settings: ligand LPS, analyte NFkB-luciferase
T1 construct: stably and individually express human TLR4, TLR7 or TLR9 full-length ORF cDNAs; expressed in transfected cells; host or cells: HEK-293 (ATCC) with ELAM-1 NF-kappaB luciferase reporter
Description: (§1) To identify potent and selective TLR7/8 compounds, analogs were initially screened across a cell-based panel of human TLR4, TLR7, and TLR9 reporter lines (see Pharmacology Materials and Methods for more details). […] Certain compounds were advanced into the short-term in vivo (STIV) assay to determine dose-dependent activity and duration-of-action against mouse TLR7 (see Pharmacology Materials and Methods for more details). Select compounds were then evaluated for impact in one or more of the following mouse lupus disease models: BXSB-Yaa, NZBx-NZW, and Pristane DBA/1.
(§2) HEK-293 cells (ATCC) were engineered to stably express a NF-kappaB transcription factor inducible E-selectin (ELAM-1) luciferase reporter derived from the plasmid pGL3 (Promega) containing base pairs −2241 bp to −254 bp from the promoter of the human E-selectin gene (Accession No. NM_000450). These cells were then subsequently engineered to stably and individually express human TLR4, TLR7 or TLR9 full-length ORF cDNAs. Human TLR4 cDNA (Accession No. NM_138554) was cloned into pcDNA 3.0 expression vector (Invitrogen). TLR4 transfected cells were also engineered to express human MD-2 co-receptor [MD-2 cDNA (Accession No. NM_015364) was cloned into the pEF-BOS vector] and were supplemented with 10 nM soluble CD14 (R&D Systems) in the media to optimize LPS responsiveness. […]

TLR9 = biological target: T2, TLR9 (Homo sapiens, UniProt Q9NR96); test: HEK-293 human TLR9 NF-kappaB luciferase reporter assay (CpG-ODN); format: cell-based; parameters: stably and individually express human TLR4, TLR7 or TLR9 full-length ORF cDNAs; expressed in transfected cells; host or cells: HEK-293 (ATCC) with ELAM-1 NF-kappaB luciferase reporter; settings: ligand CpG-ODN, analyte NFkB-luciferase
T2 sequence (Q9NR96 26-1032): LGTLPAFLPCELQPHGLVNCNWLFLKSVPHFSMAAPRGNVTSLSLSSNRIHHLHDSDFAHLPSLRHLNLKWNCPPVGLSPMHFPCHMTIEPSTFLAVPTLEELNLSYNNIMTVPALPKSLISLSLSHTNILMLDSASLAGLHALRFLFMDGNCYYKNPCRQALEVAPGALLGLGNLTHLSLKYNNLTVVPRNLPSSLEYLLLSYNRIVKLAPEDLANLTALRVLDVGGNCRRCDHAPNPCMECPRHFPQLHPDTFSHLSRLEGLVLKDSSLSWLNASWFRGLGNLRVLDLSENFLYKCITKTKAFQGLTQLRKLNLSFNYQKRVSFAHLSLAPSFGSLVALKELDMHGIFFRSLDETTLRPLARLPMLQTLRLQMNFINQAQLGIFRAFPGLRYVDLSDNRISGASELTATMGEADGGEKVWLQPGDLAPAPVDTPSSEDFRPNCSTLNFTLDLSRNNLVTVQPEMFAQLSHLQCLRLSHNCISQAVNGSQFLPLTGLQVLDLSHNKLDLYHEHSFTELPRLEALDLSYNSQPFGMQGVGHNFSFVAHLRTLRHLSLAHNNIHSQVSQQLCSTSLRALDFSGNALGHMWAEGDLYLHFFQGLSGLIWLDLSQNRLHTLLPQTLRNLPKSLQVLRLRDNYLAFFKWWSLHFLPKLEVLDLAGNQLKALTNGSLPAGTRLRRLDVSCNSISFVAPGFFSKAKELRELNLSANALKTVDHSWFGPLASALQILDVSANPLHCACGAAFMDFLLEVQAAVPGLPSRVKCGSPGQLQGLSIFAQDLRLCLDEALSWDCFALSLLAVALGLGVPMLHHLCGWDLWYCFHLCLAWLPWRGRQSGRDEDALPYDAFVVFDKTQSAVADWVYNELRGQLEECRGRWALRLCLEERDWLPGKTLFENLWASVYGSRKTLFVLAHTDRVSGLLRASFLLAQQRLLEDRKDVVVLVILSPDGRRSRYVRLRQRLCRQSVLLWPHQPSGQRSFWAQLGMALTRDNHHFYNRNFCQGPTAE
Description: as §1, §2

T1 sequence (O00206 24-839): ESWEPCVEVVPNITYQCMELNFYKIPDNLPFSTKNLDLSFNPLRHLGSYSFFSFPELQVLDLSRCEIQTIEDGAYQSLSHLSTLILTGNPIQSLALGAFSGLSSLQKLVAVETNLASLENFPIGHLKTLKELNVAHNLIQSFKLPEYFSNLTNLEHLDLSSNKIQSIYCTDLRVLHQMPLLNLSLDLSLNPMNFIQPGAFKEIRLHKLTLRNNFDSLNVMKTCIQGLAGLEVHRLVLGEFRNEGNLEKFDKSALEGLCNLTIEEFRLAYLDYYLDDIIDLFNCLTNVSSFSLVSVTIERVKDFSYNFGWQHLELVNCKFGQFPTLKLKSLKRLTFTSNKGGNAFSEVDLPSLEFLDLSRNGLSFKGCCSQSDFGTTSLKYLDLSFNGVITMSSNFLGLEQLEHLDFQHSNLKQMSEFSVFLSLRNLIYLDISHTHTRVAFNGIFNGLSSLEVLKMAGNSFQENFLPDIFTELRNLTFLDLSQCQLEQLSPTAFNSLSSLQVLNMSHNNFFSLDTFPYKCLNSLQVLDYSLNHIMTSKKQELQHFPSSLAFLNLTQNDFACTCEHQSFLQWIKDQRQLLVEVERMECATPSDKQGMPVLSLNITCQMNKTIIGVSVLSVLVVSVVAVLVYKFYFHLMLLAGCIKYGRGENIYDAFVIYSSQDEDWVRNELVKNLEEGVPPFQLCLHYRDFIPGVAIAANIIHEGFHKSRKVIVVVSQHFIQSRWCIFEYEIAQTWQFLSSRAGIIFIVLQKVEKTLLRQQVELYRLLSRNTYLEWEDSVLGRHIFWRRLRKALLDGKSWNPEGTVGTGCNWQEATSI
T1 sequence (Q9Y6Y9 19-160 partner): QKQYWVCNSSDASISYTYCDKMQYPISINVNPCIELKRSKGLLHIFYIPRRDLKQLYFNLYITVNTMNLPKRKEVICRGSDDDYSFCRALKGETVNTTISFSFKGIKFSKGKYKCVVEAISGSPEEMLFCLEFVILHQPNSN

**Q.** What does the source list for `C[C@@H]1CN(c2ccc(C#N)c3ncccc23)C[C@H](C(=O)N[C@H]2CNC[C@H]2F)O1.Cl` [ER-899742, (2R,6R)-4-(8-cyanoquinolin-5-yl)-N-[(3S,4R)-4-fluoropyrrolidin-3-yl]-6-methylmorpholine-2-carboxamide hydrochloride]?
**A.** IC50 (Human TLR4): > 10 µM; IC50 (TLR9): > 10 µM
